Consider 2 molecules from patent US10335462B2, “Use of long-acting GLP-1 peptides” (Novo Nordisk A/S, priority 2012, dated 2019).

Data set [1] has as its system human subjects with type 2 diabetes. To be noted: in vivo.
Text: (§1) The placebo composition may be identical to the composition of the GLP-1 agonists, but not containing a GLP-1 agonist.
(§2) In a 12-week, randomised, double-blind, placebo-controlled trial, 411 human subjects (n=43-50 per group) with type 2 diabetes were exposed.
Data set [2] shares this test system. Kind of data set: 12-week randomised, double-blind, placebo-controlled trial: safety and tolerability.
Text: as §1, §2

Like-named read-outs stand apart in the source and are kept apart here.

`CCCCCCCCCCCCCCCC(=O)N[C@@H](CCC(=O)NCCCC[C@H](NC(=O)[C@H](C)NC(=O)[C@H](C)NC(=O)[C@H](CCC(N)=O)NC(=O)CNC(=O)[C@H](CCC(=O)O)NC(=O)[C@H](CC(C)C)NC(=O)[C@H](Cc1ccc(O)cc1)NC(=O)[C@H](CO)NC(=O)[C@H](CO)NC(=O)[C@@H](NC(=O)[C@H](CC(=O)O)NC(=O)[C@H](CO)NC(=O)[C@@H](NC(=O)[C@H](Cc1ccccc1)NC(=O)[C@@H](NC(=O)CNC(=O)[C@H](CCC(=O)O)NC(=O)[C@H](C)NC(=O)[C@@H](N)Cc1cnc[nH]1)[C@@H](C)O)[C@@H](C)O)C(C)C)C(=O)N[C@@H](CCC(=O)O)C(=O)N[C@@H](Cc1ccccc1)C(=O)N[C@H](C(=O)N[C@@H](C)C(=O)N[C@@H](Cc1c[nH]c2ccccc12)C(=O)N[C@@H](CC(C)C)C(=O)N[C@H](C(=O)N[C@@H](CCCNC(=N)N)C(=O)NCC(=O)N[C@@H](CCCNC(=N)N)C(=O)NCC(=O)O)C(C)C)[C@@H](C)CC)C(=O)O` [liraglutide]: in data set [1], the major hypoglycaemia result was “no major hypoglycaemia”, the reports of pancreatitis entry is “no reports”, the “treatment-related changes in blood calcitonin” value is listed as “no reports” and the “withdrawals due to gastrointestinal adverse events” value is 2.2%-10.
Consider `CC[C@H](C)[C@H](NC(=O)[C@H](Cc1ccccc1)NC(=O)[C@H](CCC(=O)O)NC(=O)[C@H](CCCCNC(=O)COCCOCCNC(=O)COCCOCCNC(=O)CC[C@H](NC(=O)CCCCCCCCCCCCCCCCC(=O)O)C(=O)O)NC(=O)[C@H](C)NC(=O)[C@H](C)NC(=O)[C@H](CCC(N)=O)NC(=O)CNC(=O)[C@H](CCC(=O)O)NC(=O)[C@H](CC(C)C)NC(=O)[C@H](Cc1ccc(O)cc1)NC(=O)[C@H](CO)NC(=O)[C@H](CO)NC(=O)[C@@H](NC(=O)[C@H](CC(=O)O)NC(=O)[C@H](CO)NC(=O)[C@@H](NC(=O)[C@H](Cc1ccccc1)NC(=O)[C@@H](NC(=O)CNC(=O)[C@H](CCC(=O)O)NC(=O)C(C)(C)NC(=O)[C@@H](N)Cc1cnc[nH]1)[C@@H](C)O)[C@@H](C)O)C(C)C)C(=O)N[C@@H](C)C(=O)N[C@@H](Cc1c[nH]c2ccccc12)C(=O)N[C@@H](CC(C)C)C(=O)N[C@H](C(=O)N[C@@H](CCCNC(=N)N)C(=O)NCC(=O)N[C@@H](CCCNC(=N)N)C(=O)NCC(=O)O)C(C)C` [semaglutide], for which, in data set [2] (12 weeks), the “proportion of subjects with nausea and vomiting” value was “increased with dose, but were generally mild or moderate and ameliorated by titration”; the reports of pancreatitis entry is on record as “no reports”; the safety concerns entry is on record as “No semaglutide safety concerns were identified”; the “treatment-related changes in blood calcitonin” value was “no reports”. For the same molecule, in data set [2] (all dose groups), the major hypoglycaemia entry is “no major hypoglycaemia”. The “withdrawals due to gastrointestinal adverse events” value in data set [2] (range over the dose groups) is listed as 4.7%-27.7. In addition, in data set [2] (semaglutide 1.6 mg T), the “subjects developing low titre non-neutralising anti-semaglutide antibodies (no cross-reaction to native GLP-1)” value is “One subject”.
